# Laboratory results taken from patent publication US5380834A, “Immuno-suppressive agent” (Ishihara Sangyo Kaisha Ltd., priority 1992, dated 1995).
# Experiments:
# [1] = test system: IgE antibody production from murine spleen B cells; assay: Effects on the IgE antibody production from murine spleen cells (LPS + IL4); assay type: cell-based, BALB/c mouse; settings: Mus musculus, B-cell, 168 h; spleen B cells, LPS 10 μg/ml, IL4 100 U/ml, 7 days, enzyme-immunoassay; read-out: IC50 value, IgE antibody production
# [2] = test system: murine mixed lymphocyte reaction (spleen cells of BALB/c and C57BL/6 mice); assay: Effects on the murine mixed lymphocyte reaction (3H-TdR uptake); assay type: cell-based; settings: Mus musculus, BALB/c + C57BL/6 spleen cells, 48 hours, read-out: IC50 value, b (murine mixed lymphocyte reaction)
# [3] = test system: IgGl antibody production from murine spleen B cells; assay: Effects on the IgGl antibody production from murine spleen cells (LPS + IL4); assay type: cell-based, BALB/c mouse; settings: Mus musculus, B-cell, 168 h; spleen B cells, LPS 10 μg/ml, IL4 100 U/ml, 7 days, enzyme-immunoassay; read-out: IC50 value, IgGl antibody production
# [4] = test system: IgM antibody production from murine spleen B cells; assay: Effects on the IgM antibody production from murine spleen cells (LPS + IL4); assay type: cell-based, BALB/c mouse; settings: Mus musculus, B-cell, 168 h; spleen B cells, LPS 10 μg/ml, IL4 100 U/ml, 7 days, enzyme-immunoassay; read-out: IC50 value, IgM antibody production
SMILES,IC50 [1] [µg/mL],IC50 [2] [µg/mL],IC50 [3] [µg/mL],IC50 [4] [µg/mL]
"O[C@H]1C=C[C@H]2CO[C@@H]1O2 [Compound 1, 1,6-anhydro-3,4-dideoxy-β-D-threo-hex-3-enopyranose]",32,11,37,25
"O=C(O[C@H]1C=C[C@H]2CO[C@@H]1O2)c1ccco1 [Compound 17, 1,6-anhydro-3,4-dideoxy-2-O-(2-furancarbonyl)-β-D-threo-hex-3-enopyranose]",3.2,270,1,100
C#C[C@]1(O)C=C[C@H]2CO[C@@H]1O2 [Compound 29],320,> 1000,380,> 1000
